Experimental data taken from PubChem BioAssay AID248 (DTP/NCI, 2004).
Inconclusive results and toxic doses are left out. Rule as the data show it: active = T/C of 150% or more; inactive = T/C below 125%.

Tested on: L1210 leukemia ip in BDF1 mice, survival T/C
Assay: NCI In Vivo Anticancer Drug Screen. Data for tumor model L1210 Leukemia (intraperitoneal) in B6D2F1 (BDF1) mice
Details: endpoint: mean survival time, higher = longer survival
Method in brief: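 Value reflects the ratio of survival in compound-treated mice to survival in vehicle-treated controls, with both groups carrying the same transplanted tumor.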

[1] = dose: 100.0 mg/kg/injection, schedule: Q01DX009 (ip), vehicle: Klucel (hydroxypropylcellulose) (HPC)
[2] = dose: 200.0 mg/kg/injection, schedule: Q01DX009 (ip), vehicle: Klucel (hydroxypropylcellulose) (HPC)
[3] = dose: 100.0 mg/kg/injection, schedule: Q01DX001 (ip), vehicle: saline
[4] = dose: 200.0 mg/kg/injection, schedule: Q01DX001 (ip), vehicle: saline
[5] = dose: 400.0 mg/kg/injection, schedule: Q01DX001 (ip), vehicle: saline

Measured: T/C

O=NN(CCCl)C(=O)NC(=O)NCCCl
inactive: dose: 1.0 mg/kg/injection, schedule: Q01DX001 (ip), vehicle: carboxymethylcellulose (CMC) 112 % of control | dose: 2.0 mg/kg/injection, schedule: Q01DX001 (ip), vehicle: carboxymethylcellulose (CMC) 118 % of control | dose: 4.0 mg/kg/injection, schedule: Q01DX001 (ip), vehicle: carboxymethylcellulose (CMC) 122 % of control | dose: 18.0 mg/kg/injection, schedule: Q01DX001 (ip), vehicle: carboxymethylcellulose (CMC) 119 % of control

N#Cc1nn(C2OC(CO)C(O)C2O)c2ncnc(N)c12 (centres undefined)
inactive: dose: 25.0 mg/kg/injection, schedule: Q01DX009 (ip), vehicle: saline 110 % of control | dose: 50.0 mg/kg/injection, schedule: Q01DX005 (ip), vehicle: saline 117 % of control | dose: 50.0 mg/kg/injection, schedule: Q01DX009 (ip), vehicle: saline 114 % of control | dose: 100.0 mg/kg/injection, schedule: Q01DX005 (ip), vehicle: saline 97 % of control

Brc1cc(Br)c(/C=C/c2c(Br)cc(Br)cc2Br)c(Br)c1
inactive: [1] 104 % of control | [2] 102 % of control | dose: 400.0 mg/kg/injection, schedule: Q01DX009 (ip), vehicle: Klucel (hydroxypropylcellulose) (HPC) 105 % of control

O=C1CC2CCC(C1)N2CC1COc2ccccc2O1 (centres undefined)
inactive: [3] 100 % of control | [4] 120 % of control

CCCCCCOc1ccc(C(=N)N(CCCC)CCCC)c2ccccc12
inactive: dose: 5.0 mg/kg/injection, schedule: Q01DX001 (ip), vehicle: saline 97 % of control | dose: 10.0 mg/kg/injection, schedule: Q01DX001 (ip), vehicle: saline 97 % of control | dose: 20.0 mg/kg/injection, schedule: Q01DX001 (ip), vehicle: saline 89 % of control

CCS(=O)(=O)c1ccc(NC(=O)Oc2ccccc2OC)cc1
inactive: dose: 100.0 mg/kg/injection, schedule: Q01DX001 (ip), vehicle: carboxymethylcellulose (CMC) 89 % of control | dose: 200.0 mg/kg/injection, schedule: Q01DX001 (ip), vehicle: carboxymethylcellulose (CMC) 100 % of control | dose: 400.0 mg/kg/injection, schedule: Q01DX001 (ip), vehicle: carboxymethylcellulose (CMC) 100 % of control

O=C1c2ccccc2C(=O)N1CNc1ccc(Cl)cn1
inactive: dose: 100.0 mg/kg/injection, schedule: Q01DX009 (ip), vehicle: saline with Tween-80 89 % of control | dose: 200.0 mg/kg/injection, schedule: Q01DX009 (ip), vehicle: saline with Tween-80 87 % of control | dose: 400.0 mg/kg/injection, schedule: Q01DX009 (ip), vehicle: saline with Tween-80 101 % of control

COc1ccc(C(=O)/C=C/c2ccc(Cl)cc2)cc1
inactive: dose: 100.0 mg/kg/injection, schedule: Q04DX003 (ip), vehicle: Klucel (hydroxypropylcellulose) (HPC) 100 % of control | dose: 200.0 mg/kg/injection, schedule: Q04DX003 (ip), vehicle: Klucel (hydroxypropylcellulose) (HPC) 95 % of control | dose: 400.0 mg/kg/injection, schedule: Q04DX003 (ip), vehicle: Klucel (hydroxypropylcellulose) (HPC) 92 % of control

O=C(O)CCCCOc1ccc([N+](=O)[O-])cc1Cl
inactive: [1] 109 % of control | [2] 103 % of control

CCCCCCCCCCSCCO
inactive: [3] 102 % of control | [4] 102 % of control | [5] 97 % of control

Cc1ccc(-n2c(O)c(N=Nc3ccc(Br)cc3)c(=O)n(-c3ccc(Br)cc3)c2=S)cc1
inactive: dose: 50.0 mg/kg/injection, schedule: Q01DX001 (ip), vehicle: Klucel (hydroxypropylcellulose) (HPC) 100 % of control | dose: 100.0 mg/kg/injection, schedule: Q01DX001 (ip), vehicle: Klucel (hydroxypropylcellulose) (HPC) 109 % of control | dose: 200.0 mg/kg/injection, schedule: Q01DX001 (ip), vehicle: Klucel (hydroxypropylcellulose) (HPC) 106 % of control

CCN(CC)CCCC(C)Nc1cc(N)nc2nc(-c3ccc(Cl)cc3)cnc12 (centres undefined)
inactive: dose: 75.0 mg/kg/injection, schedule: Q01DX001 (ip), vehicle: saline 94 % of control | dose: 150.0 mg/kg/injection, schedule: Q01DX001 (ip), vehicle: saline 101 % of control

COc1ccc(-c2oc3cc(OC)ccc3c(=O)c2O)cc1
inactive: dose: 50.0 mg/kg/injection, schedule: Q01DX001 (ip), vehicle: saline 106 % of control | [3] 98 % of control | [4] 104 % of control | [5] 98 % of control
